Key:
Format in all cases: cell-based
MOLM-13 = experiment: Proliferation inhibition (CellTiter-Glo) in MOLM-13 cells; settings: Homo sapiens, 96 h, MOLM-13 AML cells, heterozygous FLT3-ITD, IC50 (4 days)
Method in brief: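 MOLM-13 human AML cells, heterozygous for FLT3-ITD, were grown in RPMI-1640 with 10% heat-inactivated FBS and 1% Pen-Strep. About 10,000 cells in 200 μL were seeded per well of 96-well plates. After 2 hours, compounds from DMSO stocks were dispensed at eight concentrations in duplicate, with 0.2% DMSO as the untreated control. Viability was read as CellTiter-Glo ATP luminescence, and IC50 was obtained from a four-parameter logistic fit.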

MV-4-11 = experiment: Proliferation inhibition (CellTiter-Glo) in MV-4-11 cells; settings: Homo sapiens, MV4-11, 96 h, MV-4-11 AML cells, homozygous FLT3-ITD, IC50 (4 days)
Method in brief: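 MV-4-11 human AML cells (homozygous FLT3-ITD) grown in RPMI-1640 with 10% heat-inactivated FBS and 1% Pen-Strep were seeded at about 10,000 cells per 200 μL in 96 well plates. Two hours later, compounds were dispensed at eight concentrations in duplicate. Viability was measured by CellTiter-Glo luminescence, and IC50 values came from four-parameter logistic non-linear regression against untreated cells (0.2% DMSO).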

K-562 = experiment: Proliferation inhibition (CellTiter-Glo) in K-562 cells; settings: Homo sapiens, K562, 96 h, K-562 CML cells, no FLT3 mutations, IC50 (4 days)
Method in brief: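 The CML line […] (ATCC: CRL-3343) was cultured in RPMI-1640 with 10% heat-inactivated FBS and 1% Pen-Strep at 37° C. Cells were seeded at about 10,000 per 200 μL in 96-well plates, and test compound was dispensed 2 hours later at eight concentrations in duplicate. Viability was measured as ATP luminescence with CellTiter-Glo. Untreated cells (0.2% DMSO) defined 100% proliferation, and IC50 values came from four-parameter logistic fits.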

IC50 (MOLM-13) [µM] | IC50 (MV-4-11) [µM] | IC50 (K-562) [µM] | Structure (SMILES)
0.001 to 0.01 | 0.001 to 0.01 | > 0.5 | C=CC(=O)N(C)[C@@H](C)C(=O)NCCc1cc(Nc2nc(NC3CCOCC3)c(CC)nc2C(N)=O)cc(OC)c1 [Compound 109, 6-ethyl-3-[3-methoxy-5-[2-[[(2S)-2-[methyl(prop-2-enoyl)amino]propanoyl]amino]ethyl]anilino]-5-(tetrahydropyran-4-ylamino)pyrazine-2-carboxamide]
0.001 to 0.01 | < 0.001 | > 0.5 | CCc1nc(C(N)=O)c(Nc2cc(CCNC(=O)[C@H](C)N(C)C(=O)/C=C/CN(C)C)cc(OC)c2)nc1NC1CCOCC1 [Compound 110, 3-[3-[2-[[(2S)-2-[[(E)-4-(dimethylamino)but-2-enoyl]-methyl-amino]propanoyl]amino]ethyl]-5-methoxy-anilino]-6-ethyl-5-(tetrahydropyran-4-ylamino)pyrazine-2-carboxamide]
0.01 to 0.1 | 0.001 to 0.01 | > 0.5 | CC#CC(=O)N(C)[C@@H](C)C(=O)NCCc1cc(Nc2nc(NC3CCOCC3)c(CC)nc2C(N)=O)cc(OC)c1 [Compound 111, 3-[3-[2-[[(2S)-2-[but-2-ynoyl(methyl)amino]propanoyl]amino]ethyl]-5-methoxy-anilino]-6-ethyl-5-(tetrahydropyran-4-ylamino)pyrazine-2-carboxamide]
0.1 to 0.5 | 0.1 to 0.5 | > 0.5 | C=CC(=O)N1CCC(C(=O)Nc2cccc(Nc3nc(NC4CCOCC4)c(CC)nc3C(N)=O)c2)C1 (stereo not drawn) [Compound 112, 6-ethyl-3-[3-[(1-prop-2-enoylpyrrolidine-3-carbonyl)amino]anilino]-5-(tetrahydropyran-4-ylamino)pyrazine-2-carboxamide]
0.001 to 0.01 | < 0.001 | > 0.5 | C=CC(=O)N(C)[C@@H](C)C(=O)NCC#Cc1cc(Nc2nc(NC3CCOCC3)c(CC)nc2C(N)=O)ccc1OC [Compound 113, 6-ethyl-3-[4-methoxy-3-[3-[[(2S)-2-[methyl(prop-2-enoyl)amino]propanoyl]amino]prop-1-ynyl]anilino]-5-(tetrahydropyran-4-ylamino)pyrazine-2-carboxamide]
0.01 to 0.1 | 0.001 to 0.01 | > 0.5 | CC#CC(=O)N(C)[C@@H](C)C(=O)NCCCOc1cccc(Nc2nc(NC3CCOCC3)c(CC)nc2C(N)=O)c1 [Compound 114, 3-[3-[3-[[(2S)-2-[but-2-ynoyl(methyl)amino]propanoyl]amino]propoxy]anilino]-6-ethyl-5-(tetrahydropyran-4-ylamino)pyrazine-2-carboxamide]
0.001 to 0.01 | < 0.001 | > 0.5 | CCc1nc(C(N)=O)c(Nc2cccc(OC(C)CCNC(=O)[C@H](C)N(C)C(=O)/C=C/CN(C)C)c2)nc1NC1CCOCC1 (stereo partly drawn) [Compound 115, 3-[3-[3-[[(2S)-2-[[(E)-4-(dimethylamino)but-2-enoyl]-methyl-amino]propanoyl]amino]-1-methyl-propoxy]anilino]-6-ethyl-5-(tetrahydropyran-4-ylamino)pyrazine-2-carboxamide]
0.001 to 0.01 | < 0.001 | > 0.5 | CCc1nc(C(N)=O)c(Nc2cccc(OC(C)CNC(=O)[C@H](C)N(C)C(=O)/C=C/CN(C)C)c2)nc1NC1CCOCC1 (stereo partly drawn) [Compound 115A, 3-[3-[2-[[(2S)-2-[[(E)-4-(dimethylamino)but-2-enoyl]-methyl-amino]propanoyl]amino]-1-methyl-ethoxy]anilino]-6-ethyl-5-(tetrahydropyran-4-ylamino)pyrazine-2-carboxamide]
< 0.001 | < 0.001 | > 0.5 | CCc1nc(C(N)=O)c(Nc2cccc(OCCCNC(=O)[C@H](C)N(C)C(=O)/C=C/CN(C)C)c2)nc1N(C)C1CCOCC1 [Compound 116, (S,E)-3-((3-(3-(2-(4-(dimethylamino)-N-methylbut-2-enamido)propanamido)propoxy)phenyl)amino)-6-ethyl-5-(methyl(tetrahydro-2H-pyran-4-yl)amino)pyrazine-2-carboxamide]
0.001 to 0.01 | < 0.001 | > 0.5 | CCc1nc(C(N)=O)c(Nc2cccc(OCCCNC(=O)[C@H](C)N(C)C(=O)/C=C/CN(C)C)c2)nc1N(C)C [Compound 118, (S,E)-5-(dimethylamino)-3-((3-(3-(2-(4-(dimethylamino)-N-methylbut-2-enamido)propanamido)propoxy)phenyl)amino)-6-ethylpyrazine-2-carboxamide]
0.001 to 0.01 | 0.001 to 0.01 | > 0.5 | CCc1nc(C(N)=O)c(Nc2cccc(OCCCNC(=O)[C@H](C)N(C)C(=O)/C=C/CN(C)C)c2)nc1NC [Compound 119, (S,E)-3-((3-(3-(2-(4-(dimethylamino)-N-methylbut-2-enamido)propanamido)propoxy)phenyl)amino)-6-ethyl-5 (methylamino)pyrazine-2-carboxamide]
0.001 to 0.01 | 0.001 to 0.01 | > 0.5 | CCc1nc(C(N)=O)c(Nc2cccc(OCCCNC(=O)[C@H](C)N(C)C(=O)/C=C/CN(C)C)c2)nc1OC [Compound 120, (S,E)-3-((3-(3-(2-(4-(dimethylamino)-N-methylbut-2-enamido)propanamido)propoxy)phenyl)amino)-6-ethyl-5-methoxypyrazine-2-carboxamide]
0.1 to 0.5 | 0.01 to 0.1 | > 0.5 | CCc1cnc(Nc2cccc(OCCCNC(=O)[C@H](C)N(C)C(=O)/C=C/CN(C)C)c2)c(C(N)=O)n1 [Compound 121, (S,E)-3-((3-(3-(2-(4-(dimethylamino)-N-methylbut-2-enamido)propanamido)propoxy)phenyl)amino)-6-ethylpyrazine-2-carboxamide]
< 0.001 | < 0.001 | > 0.5 | CCc1nc(C(N)=O)c(Nc2cccc(OCCCNC(=O)[C@H](C)N(C)C(=O)/C=C/CN(C)C)c2)nc1NC(CC)CC [Compound 122, (S,E)-3-((3-(3-(2-(4-(dimethylamino)-N-methylbut-2-enamido)propanamido)propoxy)phenyl)amino)-6-ethyl-5-(pentan-3-ylamino)pyrazine-2-carboxamide]
0.001 to 0.01 | < 0.001 | > 0.5 | CCc1nc(C(N)=O)c(Nc2cccc(OCCCNC(=O)[C@H](C)N(C)C(=O)/C=C/CN(C)C)c2)nc1NC1CCC(F)(F)CC1 [Compound 123, (S,E)-5-((4,4-difluorocyclohexyl)amino)-3-((3-(3-(2-(4-(dimethylamino)-N-methylbut-2-enamido)propanamido)propoxy)phenyl)amino)-6-ethylpyrazine-2-carboxamide]
< 0.001 | 0.001 to 0.01 | > 0.5 | CCc1nc(C(N)=O)c(Nc2cccc(OCCCNC(=O)[C@H](C)N(C)C(=O)/C=C/CN(C)C)c2)nc1NC(C)C [Compound 124, (S,E)-3-((3-(3-(2-(4-(dimethylamino)-N-methylbut-2-enamido)propanamido)propoxy)phenyl)amino)-6-ethyl-5-(isopropylamino)pyrazine-2-carboxamide]
0.01 to 0.1 | 0.001 to 0.01 | > 0.5 | CCc1nc(C(N)=O)c(Nc2cccc(OCCCNC(=O)[C@H](C)N(C)C(=O)/C=C/CN(C)C)c2)nc1C1CC1 [Compound 125, (S,E)-5-cyclopropyl-3-((3-(3-(2-(4-(dimethylamino)-N-methylbut-2-enamido)propanamido)propoxy)phenyl)amino)-6-ethylpyrazine-2-carboxamide]
0.01 to 0.1 | 0.001 to 0.01 | > 0.5 | CCc1nc(C(N)=O)c(Nc2cccc(OCCCNC(=O)[C@H](C)N(C)C(=O)/C=C/CN(C)C)c2)nc1C [Compound 126, (S,E)-3-((3-(3-(2-(4-(dimethylamino)-N-methylbut-2-enamido)propanamido)propoxy)phenyl)amino)-6-ethyl-5-methylpyrazine-2-carboxamide]
0.001 to 0.01 | 0.001 to 0.01 | > 0.5 | CC#CC(=O)N(C)[C@@H](C)C(=O)NCCCOc1cc(F)cc(Nc2nc(NC3CCOCC3)c(CC)nc2C(N)=O)c1 [Compound 128, (S)-6-ethyl-3-((3-fluoro-5-(3-(2-(N-methylbut-2-ynamido)propanamido)propoxy)phenyl)amino)-5-((tetrahydro-2H-pyran-4-yl)amino)pyrazine-2-carboxamide]
< 0.001 | < 0.001 | > 0.5 | CCc1nc(C(N)=O)c(Nc2cc(F)cc(OCCCNC(=O)[C@H](C)N(C)C(=O)/C=C/CN(C)C)c2)nc1NC1CCOCC1 [Compound 129, (S,E)-3-((3-(3-(2-(4-(Dimethylamino)-N-methylbut-2-enamido)propanamido)propoxy)-5-fluorophenyl)amino)-6-ethyl-5-((tetrahydro-2H-pyran-4-yl)amino)pyrazine-2-carboxamide]

From patent US20250136558A1, “PYRAZINE COMPOUNDS AS IRREVERSIBLE INHIBITORS OF FLT3” (BIOMEA FUSION, INC., priority 2021, published 2025)
